# Test results: US20120270875A1, “PYRIMIDINE AMIDE COMPOUNDS” (priority 2011, published 2012)
# Read-outs that look alike come from different tables or passages of the source.
# Legend:
# [1] = target: sLFA-1/ICAM-1 (Homo sapiens, UniProt P05107+P20701, DEL701-769); test: sLFA-1/ICAM-1 ELISA; assay type: binding
# Experimental: (§1) sLFA-1/ICAM-1 ELISA and Mac-1/ICAM-1 ELISA
# (§2) Plates were coated with either 50 μl/well of 2.0 ug/ml solution of sLFA-1 or Mac-1 receptor in divalent cation buffer (1 mM MnCl2, 0.14M NaCl, 20 mM HEPES pH 7.2) at 4° C. overnight. Two hundred fifty μl of blocking buffer (1% BSA in divalent cation buffer) was added to each well 1 hour at 37° C. Plates were washed 3 times with wash buffer (TBS/0.05% Tween-20/1 mM MnCl2). The compound to be tested was solubilized in DMSO. A series of 1:3 dilutions were performed to achieve a concentration range of 0.45 nM-3 uM. Fifty μl of binding buffer (0.5% BSA in divalent cation buffer)/1% DMSO and 50 μl of the solutions to be tested were added to the appropriate wells and incubated for 1 hour. Fifty μl of 5dICAM-Fc (27 ng/ml) was added to the appropriate wells and 50 μl binding buffer was added to non-specific binding wells and incubated for 2 hours and washed. One hundred μl of 1:4000 HRP-goat anti-huIgG was added to each well and incubated for 1 hour and washed. One hundred μl of 1:1 TMB solution was added to each well and developed for 20 min at room temperature. Color development was stopped by adding 100 μl H3PO4 to each well. Absorbance was measured at 450 nm.
# [2] = target: Mac-1/ICAM-1 (Homo sapiens, UniProt P05107+P11215); test: Mac-1/ICAM-1 ELISA; details: Mac-1 coated plates, 5dICAM-Fc binding
# Mac-1/ICAM-1, sequence (P05107 23-769, other chains not shown): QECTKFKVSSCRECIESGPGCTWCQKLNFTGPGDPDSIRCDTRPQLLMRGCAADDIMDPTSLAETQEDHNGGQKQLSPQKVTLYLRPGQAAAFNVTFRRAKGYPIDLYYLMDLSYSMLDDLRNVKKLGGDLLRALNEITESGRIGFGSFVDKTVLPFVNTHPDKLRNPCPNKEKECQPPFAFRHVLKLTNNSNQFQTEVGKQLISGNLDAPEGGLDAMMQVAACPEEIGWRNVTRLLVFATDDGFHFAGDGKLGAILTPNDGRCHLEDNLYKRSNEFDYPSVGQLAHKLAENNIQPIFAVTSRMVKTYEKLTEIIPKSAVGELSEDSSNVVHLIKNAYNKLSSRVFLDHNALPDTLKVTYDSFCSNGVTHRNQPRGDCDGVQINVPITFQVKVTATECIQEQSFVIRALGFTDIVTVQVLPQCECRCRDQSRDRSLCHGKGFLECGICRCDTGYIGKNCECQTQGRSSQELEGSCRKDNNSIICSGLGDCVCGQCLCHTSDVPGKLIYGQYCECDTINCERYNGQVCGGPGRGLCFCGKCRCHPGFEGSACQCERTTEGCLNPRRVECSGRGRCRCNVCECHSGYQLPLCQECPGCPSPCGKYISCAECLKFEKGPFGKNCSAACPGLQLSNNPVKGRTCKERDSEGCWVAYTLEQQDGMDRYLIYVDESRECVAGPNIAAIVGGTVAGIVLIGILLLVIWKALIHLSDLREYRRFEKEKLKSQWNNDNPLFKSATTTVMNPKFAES
# Experimental: as §1, §2
# [3] = tested on: PBMC's from two healthy donors; test: Human Mixed Lymphocyte Reaction (hMLR); assay type: cell-based; details: 3H-thymidine incorporation, read-out: human MLR (IC50)
# Experimental: Human Mixed Lymphocyte Reaction (hMLR)
# PBMC's were isolated from two healthy donors by Ficoll gradient. Cells were resuspended with 4 mL assay media and counted with a Coulter Counter. Both cell populations were resuspended to 1×10^7/mL. Stimulator cells were irradiated for 2.5 min (2000 RAD) in cesium irradiator. 5×10^5 cells were added to duplicate wells of the plate. Included were quadruplicate wells receiving responder cells alone and stimulator cells alone. The compound to be tested was solubilized in DMSO. A series of 1:3 dilutions were performed to achieve a concentration range of 0.45 nM-3 uM. One hundred μl of the solutions to be tested were added to the cell plate (100 μl of 2% DMSO/media added to control wells). Plates were then incubated for 2.5 days at 37° C. with 5% CO2. Plates were pulsed with 50 μl/well 3H-thymidine at 0.5 uCi/well then incubated for 6 hours at 37° C. with 5% CO2. Cells were harvested using Cell Harvester (TomTec) and counted on TopCount (Perkin Elmer).
# [4] = sLFA-1 coated plates, 5dICAM-Fc binding, ELISA, read-out: LFA-1/ICAM (IC50)
# sLFA-1/ICAM-1, sequence (P20701 26-1090 limits assumed, stated change not applied): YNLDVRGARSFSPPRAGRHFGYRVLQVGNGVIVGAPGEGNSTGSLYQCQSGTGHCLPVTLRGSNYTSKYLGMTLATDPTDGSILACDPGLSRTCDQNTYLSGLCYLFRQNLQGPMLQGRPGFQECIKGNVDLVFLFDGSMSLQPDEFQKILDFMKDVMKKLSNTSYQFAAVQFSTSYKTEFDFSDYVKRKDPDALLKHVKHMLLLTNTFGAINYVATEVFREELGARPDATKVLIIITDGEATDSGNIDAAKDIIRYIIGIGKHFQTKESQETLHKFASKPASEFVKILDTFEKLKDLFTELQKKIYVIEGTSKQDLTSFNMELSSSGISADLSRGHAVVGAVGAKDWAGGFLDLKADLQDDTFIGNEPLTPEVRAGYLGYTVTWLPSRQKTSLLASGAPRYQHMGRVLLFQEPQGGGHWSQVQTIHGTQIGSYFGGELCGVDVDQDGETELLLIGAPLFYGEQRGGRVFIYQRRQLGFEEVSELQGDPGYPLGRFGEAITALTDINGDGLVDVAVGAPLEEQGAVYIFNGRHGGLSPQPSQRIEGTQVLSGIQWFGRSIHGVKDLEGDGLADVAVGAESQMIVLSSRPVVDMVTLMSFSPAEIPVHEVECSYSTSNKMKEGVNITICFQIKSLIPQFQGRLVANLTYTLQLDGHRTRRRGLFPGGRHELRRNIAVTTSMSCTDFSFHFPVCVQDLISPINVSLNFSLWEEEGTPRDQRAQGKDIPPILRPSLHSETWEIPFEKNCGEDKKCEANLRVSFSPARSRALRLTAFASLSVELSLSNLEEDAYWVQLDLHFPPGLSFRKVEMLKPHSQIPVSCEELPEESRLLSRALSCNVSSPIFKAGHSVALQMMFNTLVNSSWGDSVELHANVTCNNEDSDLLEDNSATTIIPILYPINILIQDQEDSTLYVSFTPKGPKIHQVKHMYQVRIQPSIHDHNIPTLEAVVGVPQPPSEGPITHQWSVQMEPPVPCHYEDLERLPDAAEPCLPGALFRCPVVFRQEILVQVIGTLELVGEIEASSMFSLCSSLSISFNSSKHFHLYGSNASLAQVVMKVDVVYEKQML
# sLFA-1/ICAM-1, sequence (P05107 23-700 limits assumed, stated change not applied): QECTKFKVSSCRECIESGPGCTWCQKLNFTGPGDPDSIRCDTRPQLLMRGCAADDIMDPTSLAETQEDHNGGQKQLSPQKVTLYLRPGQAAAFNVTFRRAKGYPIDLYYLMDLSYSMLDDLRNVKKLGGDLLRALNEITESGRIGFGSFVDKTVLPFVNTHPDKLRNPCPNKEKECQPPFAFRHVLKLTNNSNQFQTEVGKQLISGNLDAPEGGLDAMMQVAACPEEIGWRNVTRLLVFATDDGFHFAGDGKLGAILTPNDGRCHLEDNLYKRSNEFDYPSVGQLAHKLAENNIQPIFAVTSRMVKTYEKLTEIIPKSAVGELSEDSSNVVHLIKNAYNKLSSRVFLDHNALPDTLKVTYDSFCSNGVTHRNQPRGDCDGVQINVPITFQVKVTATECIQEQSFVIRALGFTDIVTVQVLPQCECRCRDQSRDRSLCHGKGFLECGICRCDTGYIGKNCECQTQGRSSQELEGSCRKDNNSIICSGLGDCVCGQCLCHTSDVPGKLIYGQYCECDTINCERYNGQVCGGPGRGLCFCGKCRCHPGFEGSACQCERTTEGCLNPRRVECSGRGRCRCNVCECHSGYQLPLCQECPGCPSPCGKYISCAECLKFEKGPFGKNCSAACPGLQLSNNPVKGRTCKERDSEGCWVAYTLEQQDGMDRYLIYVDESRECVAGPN
Structure (SMILES),"IC50 [1, 4] [nM]",IC50 [2] [nM],IC50 [3] [nM],IC50 [1] [nM]
"Cc1nc(CCCCc2cccc(O)c2)nc(C)c1C(=O)N[C@@H](CNC(=O)c1cccs1)C(=O)O [Example 1, (S)-2-({2-[4-(3-hydroxy-phenyl)-butyl]-4,6-dimethyl-pyrimidine-5-carbonyl}-amino)-3-[(thiophene-2-carbonyl)-amino]-propionic acid]",73,441,4460,
"Cc1nc(OCCCc2cccc(O)c2)nc(C)c1C(=O)N[C@@H](CNC(=O)c1cccs1)C(=O)O [Example 3, (S)-2-({2-[3-(3-hydroxy-phenyl)-propoxy]-4,6-dimethyl-pyrimidine-5-carbonyl}-amino)-3-[(thiophene-2-carbonyl)-amino]-propionic acid]",32,57,574,
"CC(=O)NC[C@H](NC(=O)c1c(C)nc(NCCCc2cccc3[nH]ncc23)nc1C)C(=O)O [Example 4, (S)-3-acetylamino-2-({2-[3-(1H-indazol-4-yl)-propylamino]-4,6-dimethyl-pyrimidine-5-carbonyl}-amino)-propionic acid]",120,,10000,
"Cc1nc(NCCCc2ccc3cn[nH]c3c2)nc(C)c1C(=O)N[C@@H](CNC(=O)c1cccs1)C(=O)O [Example 63, (S)-2-({2-[3-(1H-Indazol-6-yl)-propylamino]-4,6-dimethyl-pyrimidine-5-carbonyl}-amino)-3-[(thiophene-2-carbonyl)-amino]-propionic acid]",323,670,,
"Cc1nc(NC/C=C\c2cccc(O)c2)nc(C)c1C(=O)N[C@@H](CNC(=O)c1cccs1)C(=O)O [Example 73, (S)-2-({2-[(Z)-3-(3-Hydroxy-phenyl)-allylamino]-4,6-dimethyl-pyrimidine-5-carbonyl}-amino)-3-[(thiophene-2-carbonyl)-amino]-propionic acid]",56,,809,
"Cc1nc(NC/C=C/c2cccc(O)c2)nc(C)c1C(=O)N[C@@H](CNC(=O)c1cccs1)C(=O)O [Example 74, (S)-2-({2-[(E)-3-(3-Hydroxy-phenyl)-allylamino]-4,6-dimethyl-pyrimidine-5-carbonyl}-amino)-3-[(thiophene-2-carbonyl)-amino]-propionic acid]",152,,2060,
"Cc1nc(NCCCc2cccc(O)c2)ncc1C(=O)N[C@@H](CNC(=O)c1cccs1)C(=O)O [Example 76, (S)-2-({2-[3-(3-Hydroxy-phenyl)-propylamino]-4-methyl-pyrimidine-5-carbonyl}-amino)-3-[(thiophene-2-carbonyl)-amino]-propionic acid]",9,,1760,
"Cc1nc(NCCCc2cccc(O)c2)nc(C)c1C(=O)N[C@@H](CNC(=O)C12CC3CC(CC(C3)C1)C2)C(=O)O [Example 99, (S)-3-[(Adamantane-1-carbonyl)-amino]-2-({2-[3-(3-hydroxy-phenyl)-propylamino]-4,6-dimethyl-pyrimidine-5-carbonyl}-amino)-propionic acid]",287,,,
"Cc1nc(NCCCc2cccc(O)c2)nc(C)c1C(=O)N[C@@H](CNC(=O)Nc1ccccc1)C(=O)O [Example 107, (S)-2-({2-[3-(3-hydroxy-phenyl)-propylamino]-4,6-dimethyl-pyrimidine-5-carbonyl}-amino)-3-(3-phenyl-ureido)-propionic acid]",,,,166
"Cc1nc(NCCCc2cccc(O)c2)nc(C)c1C(=O)N[C@@H](CNC(=O)N1CCCc2ccccc21)C(=O)O [Example 115, (S)-3-[(3,4-Dihydro-2H-quinoline-1-carbonyl)-amino]-2-({2-[3-(3-hydroxy-phenyl)-propylamino]-4,6-dimethyl-pyrimidine-5-carbonyl}-amino)-propionic acid]",456,,,
"Cc1nc(NC2CCc3cccc(O)c3C2)nc(C)c1C(=O)N[C@@H](CNC(=O)c1cnccn1)C(=O)O (stereo partly drawn) [Example 117, (S)-2-{[2-(8-Hydroxy-1,2,3,4-tetrahydro-naphthalen-2-ylamino)-4,6-dimethyl-pyrimidine-5-carbonyl]-amino}-3-[(pyrazine-2-carbonyl)-amino]-propionic acid]",175,,5110,

# Continued, in another order:
"IC50 [1, 4] [nM]",IC50 [2] [nM],Structure (SMILES),IC50 [3] [nM],IC50 [1] [nM]
26,,"Cc1nc(NCCCc2cccc(O)c2)nc(C)c1C(=O)N[C@@H](CNC(=O)c1cscn1)C(=O)O [Example 46, (S)-2-({2-[3-(3-hydroxy-phenyl)-propylamino]-4,6-dimethyl-pyrimidine-5-carbonyl}-amino)-3-[(thiazole-4-carbonyl)-amino]-propionic acid]",753,
20,,"CCc1nc(NCCCc2cccc(O)c2)nc(C)c1C(=O)N[C@@H](CNC(=O)c1cccs1)C(=O)O [Example 78, (S)-2-({4-Ethyl-2-[3-(3-hydroxy-phenyl)-propylamino]-6-methyl-pyrimidine-5-carbonyl}-amino)-3-[(thiophene-2-carbonyl)-amino]-propionic acid]",766,
4,,"Cc1ccc(C(=O)NC[C@H](NC(=O)c2c(C)nc(NCCCc3cccc(O)c3)nc2C)C(=O)O)s1 [Example 87, (S)-2-({2-[3-(3-hydroxy-phenyl)-propylamino]-4,6-dimethyl-pyrimidine-5-carbonyl}-amino)-3-[(5-methyl-thiophene-2-carbonyl)-amino]-propionic acid]",1430,
29,,"Cc1nc(NCCCc2cccc(O)c2)nc(C)c1C(=O)N[C@@H](CNC(=O)c1cnccn1)C(=O)O [Example 93, (S)-2-({2-[3-(3-hydroxy-phenyl)-propylamino]-4,6-dimethyl-pyrimidine-5-carbonyl}-amino)-3-[(pyrazine-2-carbonyl)-amino]-propionic acid]",2300,
177,,"Cc1cccc(C(=O)NC[C@H](NC(=O)c2c(C)nc(NCCCc3cccc(O)c3)nc2C)C(=O)O)c1 [Example 97, (S)-2-({2-[3-(3-hydroxy-phenyl)-propylamino]-4,6-dimethyl-pyrimidine-5-carbonyl}-amino)-3-(3-methyl-benzoylamino)-propionic acid]",,
52,,"Cc1cnc(C(=O)NC[C@H](NC(=O)c2c(C)nc(NCCCc3cccc(O)c3)nc2C)C(=O)O)cn1 [Example 101, (S)-2-({2-[3-(3-Hydroxy-phenyl)-propylamino]-4,6-dimethyl-pyrimidine-5-carbonyl}-amino)-3-[(5-methyl-pyrazine-2-carbonyl)-amino]-propionic acid]",6340,
66,,"Cc1nc(NCCCc2cccc(O)c2)nc(C)c1C(=O)N[C@@H](CNC(=O)c1sccc1Cl)C(=O)O [Example 103, (S)-3-[(3-Chloro-thiophene-2-carbonyl)-amino]-2-({2-[3-(3-hydroxy-phenyl)-propylamino]-4,6-dimethyl-pyrimidine-5-carbonyl}-amino)-propionic acid]",,
103,,"CCc1ccc(C(=O)NC[C@H](NC(=O)c2c(C)nc(NCCCc3cccc(O)c3)nc2C)C(=O)O)s1 [Example 105, (S)-[(5-Ethyl-thiophene-2-carbonyl)-amino]-2-({2-[3-(3-hydroxy-phenyl)-propylamino]-4,6-dimethyl-pyrimidine-5-carbonyl}-amino)-3-propionic acid]",,
198,,"COC(=O)NC[C@H](NC(=O)c1c(C)nc(NCCCc2cccc(O)c2)nc1C)C(=O)O [Example 109, (S)-2-({2-[3-(3-Hydroxy-phenyl)-propylamino]-4,6-dimethyl-pyrimidine-5-carbonyl}-amino)-3-methoxycarbonylamino-propionic acid]",,
56,,"Cc1nc(NCCCc2cccc(O)c2)nc(C)c1C(=O)N[C@@H](CNC(=O)OCc1ccccc1)C(=O)O [Example 111, (S)-3-Benzyloxycarbonylamino-2-({2-[3-(3-Hydroxy-phenyl)-propylamino]-4,6-dimethyl-pyrimidine-5-carbonyl}-amino)-propionic acid]",4880,
74,,"Cc1nc(NCCCc2cccc(O)c2)nc(C)c1C(=O)N[C@@H](CNC(=O)N(C)C)C(=O)O [Example 113, (S)-3-(3,3-Dimethyl-ureido)-2-({2-[3-(3-Hydroxy-phenyl)-propylamino]-4,6-dimethyl-pyrimidine-5-carbonyl}-amino)-propionic acid]",4180,
